Molecular target: T1, Androgen Receptor (AR) protein (Homo sapiens, UniProt P10275, T878A)
T1 construct: endogenous in cells; host or cells: LNCaP
Assay: Androgen Receptor (AR) protein degradation assay in LNCaP cells, western blotting
Type: cell-based
Conditions: 20 h; for inhibition at 0.01 µM: 0.01 μM compound; for inhibition at 0.1 µM: 0.1 μM compound; for inhibition at 1 µM: 1 μM compound
Method in brief: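 AR protein level was detected by western blot (ECL) against GAPDH or β-actin controls, with 8 μg lysate protein loaded per lane after BCA quantification. Lysates came from LNCaP cells exposed to test compound for 20 h, following 3 days of growth in RPMI/10% FBS.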

T1 sequence (P10275 whole entry T878A): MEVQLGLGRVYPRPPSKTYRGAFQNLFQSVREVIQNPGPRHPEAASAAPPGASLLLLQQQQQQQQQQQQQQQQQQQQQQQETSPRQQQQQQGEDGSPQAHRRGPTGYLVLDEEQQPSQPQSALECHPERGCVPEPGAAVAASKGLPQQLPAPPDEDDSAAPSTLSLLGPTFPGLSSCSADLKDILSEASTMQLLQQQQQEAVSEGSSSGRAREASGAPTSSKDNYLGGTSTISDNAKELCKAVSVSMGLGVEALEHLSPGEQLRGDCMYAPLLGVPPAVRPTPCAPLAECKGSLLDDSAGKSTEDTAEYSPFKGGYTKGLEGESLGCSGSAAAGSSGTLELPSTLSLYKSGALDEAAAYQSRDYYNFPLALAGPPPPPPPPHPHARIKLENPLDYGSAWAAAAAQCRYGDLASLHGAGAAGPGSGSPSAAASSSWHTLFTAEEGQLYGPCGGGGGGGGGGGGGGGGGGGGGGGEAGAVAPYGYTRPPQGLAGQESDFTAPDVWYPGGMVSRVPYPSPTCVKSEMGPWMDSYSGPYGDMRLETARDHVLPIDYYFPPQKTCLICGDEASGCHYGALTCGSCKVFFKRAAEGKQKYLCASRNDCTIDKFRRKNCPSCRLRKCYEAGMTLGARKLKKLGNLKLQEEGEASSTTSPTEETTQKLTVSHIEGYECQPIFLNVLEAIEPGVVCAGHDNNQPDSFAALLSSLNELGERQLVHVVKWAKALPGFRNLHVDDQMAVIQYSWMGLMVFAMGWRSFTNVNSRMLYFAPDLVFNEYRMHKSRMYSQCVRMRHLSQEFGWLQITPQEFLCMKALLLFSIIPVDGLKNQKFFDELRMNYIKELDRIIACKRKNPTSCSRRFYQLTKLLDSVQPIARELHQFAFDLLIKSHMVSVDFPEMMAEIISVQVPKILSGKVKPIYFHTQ
T1 sequence (Q96SW2 whole entry partner): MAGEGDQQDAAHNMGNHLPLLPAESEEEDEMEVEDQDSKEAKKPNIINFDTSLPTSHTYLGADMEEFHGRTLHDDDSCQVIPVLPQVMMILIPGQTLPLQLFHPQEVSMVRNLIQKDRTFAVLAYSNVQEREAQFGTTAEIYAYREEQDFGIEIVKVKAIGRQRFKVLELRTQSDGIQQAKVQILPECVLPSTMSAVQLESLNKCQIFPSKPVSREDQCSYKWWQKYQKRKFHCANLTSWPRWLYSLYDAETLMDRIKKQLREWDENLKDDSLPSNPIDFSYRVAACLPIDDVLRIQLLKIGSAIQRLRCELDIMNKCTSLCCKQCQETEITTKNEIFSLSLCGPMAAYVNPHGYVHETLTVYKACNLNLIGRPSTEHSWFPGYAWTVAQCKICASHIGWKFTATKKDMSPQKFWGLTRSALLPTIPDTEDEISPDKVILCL

| SMILES | inhibition at 0.01 µM [%] | inhibition at 0.1 µM [%] | inhibition at 1 µM [%] | inhibition at 10 µM (10 μM compound) [%] |
| --- | --- | --- | --- | --- |
| N#Cc1ccc(N2CCC(C(=O)Nc3ncc(N4CCC(CN5CCN(CC6CCN(c7ccc8c(c7)C(=O)N(C7CCC(=O)NC7=O)C8=O)CC6)CC5)CC4)cn3)CC2)cc1C(F)(F)F (stereo not shown) [Example 157, 1-(4-cyano-3-(trifluoromethyl)phenyl)-N-(5-(4-((4-((1-(2-(2,6-dioxopiperidin-3-yl)-1,3-dioxoisoindolin-5-yl)piperidin-4-yl)methyl)piperazin-1-yl)methyl)piperidin-1-yl)pyrimidin-2-yl)piperidine-4-carboxamide] | 0 | 33 | 78 |  |
| N#Cc1ccc(N2CCC(C(=O)Nc3ccc(N4CCC(CN5CCN(CC6CN(c7ccc8c(c7)C(=O)N(C7CCC(=O)NC7=O)C8=O)C6)CC5)CC4)cn3)CC2)cc1Cl (stereo not shown) [Example 12, 1-(3-chloro-4-cyanophenyl)-N-(5-(4-((4-((1-(2-(2,6-dioxopiperidin-3-yl)-1,3-dioxoisoindolin-5-yl)azetidin-3-yl)methyl)piperazin-1-yl)methyl)piperidin-1-yl)pyridin-2-yl)piperidine-4-carboxamide] | 52 | 95 | 97 | 94 |
| N#Cc1ccc(N2CCC(C(=O)Nc3ccc(N4CCC(CCN5CCN(c6ccc(C(=O)NC7CCC(=O)NC7=O)nc6)CC5)CC4)cn3)CC2)cc1C(F)(F)F (stereo not shown) [Example 107, 5-(4-(2-(1-(6-(1-(4-cyano-3-(trifluoromethyl)phenyl)piperidine-4-carboxamido)pyridin-3-yl)piperidin-4-yl)ethyl)piperazin-1-yl)-N-(2,6-dioxopiperidin-3-yl)picolinamide] | 44 | 85 | 93 |  |
| N#Cc1ncc(N2CCC(C(=O)Nc3ccc(N4CCC(CN5CCN(CC6CCN(c7ccc8c(c7)C(=O)N(C7CCC(=O)NC7=O)C8=O)CC6)CC5)CC4)cn3)CC2)cc1C(F)(F)F (stereo not shown) [Example 9, 1-(6-cyano-5-(trifluoromethyl)pyridin-3-yl)-N-(5-(4-((4-((1-(2-(2,6-dioxopiperidin-3-yl)-1,3-dioxoisoindolin-5-yl)piperidin-4-yl)methyl)piperazin-1-yl)methyl)piperidin-1-yl)pyridin-2-yl)piperidine-4-carboxamide] | 62 | 95 | 95 |  |
| N#Cc1ccc(N2CCC(C(=O)Nc3ccc(N4CCC(CN5CCC(COc6ccc7c(c6)C(=O)N(C6CCC(=O)NC6=O)C7=O)CC5)CC4)cn3)CC2)cc1C(F)(F)F (stereo not shown) [Example 147, 1-(4-cyano-3-(trifluoromethyl)phenyl)-N-(5-(4-((4-(((2-(2,6-dioxopiperidin-3-yl)-1,3-dioxoisoindolin-5-yl)oxy)methyl)piperidin-1-yl)methyl)piperidin-1-yl)pyridin-2-yl)piperidine-4-carboxamide] | 68 | 96 | 97 |  |
| N#Cc1ccc(N2CCC(C(=O)Nc3ccc(N4CCN(CCCCOc5ccc6c(c5)C(=O)N(C5CCC(=O)NC5=O)C6=O)CC4)cn3)CC2)cc1Cl (stereo not shown) [Example 116, 1-(3-chloro-4-cyanophenyl)-N-(5-(4-(4-((2-(2,6-dioxopiperidin-3-yl)-1,3-dioxoisoindolin-5-yl)oxy)butyl)piperazin-1-yl)pyridin-2-yl)piperidine-4-carboxamide] | 24 | 43 | 53 |  |
| CN(CCN1CCN(c2ccc3c(c2)C(=O)N(C2CCC(=O)NC2=O)C3=O)CC1)CC1CCN(c2ccc(NC(=O)C3CCN(c4ccc(C#N)c(C(F)(F)F)c4)CC3)nc2)CC1 (stereo not shown) [Example 110, 1-(4-cyano-3-(trifluoromethyl)phenyl)-N-(5-(4-(((2-(4-(2-(2,6-dioxopiperidin-3-yl)-1,3-dioxoisoindolin-5-yl)piperazin-1-yl)ethyl)(methyl)amino)methyl)piperidin-1-yl)pyridin-2-yl)piperidine-4-carboxamide] | 56 | 89 | 88 |  |
| N#Cc1ccc(N2CCC(C(=O)Nc3ccc(CCN4CCC(Oc5ccc6c(c5)C(=O)N(C5CCC(=O)NC5=O)C6=O)CC4)cn3)CC2)cc1C(F)(F)F (stereo not shown) [Example 167, 1-(4-cyano-3-(trifluoromethyl)phenyl)-N-(5-(2-(4-((2-(2,6-dioxopiperidin-3-yl)-1,3-dioxoisoindolin-5-yl)oxy)piperidin-1-yl)ethyl)pyridin-2-yl)piperidine-4-carboxamide] | 25 | 67 | 85 |  |
| N#Cc1ccc(N2CCC(C(=O)Nc3ccc(N4CCC(CN5CCN(CCOc6ccc7c(c6)C(=O)N(C6CCC(=O)NC6=O)C7=O)CC5)CC4)cn3)CC2)cc1C(F)(F)F (stereo not shown) [Example 3, 1-(4-cyano-3-(trifluoromethyl)phenyl)-N-(5-(4-((4-(2-((2-(2,6-dioxopiperidin-3-yl)-1,3-dioxoisoindolin-5-yl)oxy)ethyl)piperazin-1-yl)methyl)piperidin-1-yl)pyridin-2-yl)piperidine-4-carboxamide] | 45 | 98 | 96 |  |
| C[C@@H]1CN(CC2CN(c3ccc4c(c3)C(=O)N(C3CCC(=O)NC3=O)C4=O)C2)CCN1CC1CCN(c2ccc(NC(=O)C3CCN(c4ccc(C#N)c(C(F)(F)F)c4)CC3)nc2)CC1 (stereo partly drawn) [Example 24, 1-(4-cyano-3-(trifluoromethyl)phenyl)-N-(5-(4-(((2R)-4-((1-(2-(2,6-dioxopiperidin-3-yl)-1,3-dioxoisoindolin-5-yl)azetidin-3-yl)methyl)-2-methylpiperazin-1-yl)methyl)piperidin-1-yl)pyridin-2-yl)piperidine-4-carboxamide] | 53 | 96 | 95 |  |
| N#Cc1ncc(N2CCC(F)(C(=O)Nc3ccc(N4CCC(CN5CCN(C6CCN(c7ccc8c(c7)C(=O)N(C7CCC(=O)NC7=O)C8=O)CC6)CC5)CC4)cn3)CC2)cc1C(F)(F)F (stereo not shown) [Example 74, 1-(6-cyano-5-(trifluoromethyl)pyridin-3-yl)-N-(5-(4-((4-(1-(2-(2,6-dioxopiperidin-3-yl)-1,3-dioxoisoindolin-5-yl)piperidin-4-yl)piperazin-1-yl)methyl)piperidin-1-yl)pyridin-2-yl)-4-fluoropiperidine-4-carboxamide] | 20 | 66 | 83 |  |
| N#Cc1ccc(N2CCC(C(=O)Nc3ccc(OCCN4CCC(Oc5ccc6c(c5)C(=O)N(C5CCC(=O)NC5=O)C6=O)CC4)cn3)CC2)cc1C(F)(F)F (stereo not shown) [Example 178, 1-(4-cyano-3-(trifluoromethyl)phenyl)-N-(5-(2-(4-((2-(2,6-dioxopiperidin-3-yl)-1,3-dioxoisoindolin-5-yl)oxy)piperidin-1-yl)ethoxy)pyridin-2-yl)piperidine-4-carboxamide] | 23 | 64 | 87 |  |
| N#Cc1ccc(N2CCC(C(=O)Nc3ccc(N4CCN(CCCCCOc5ccc6c(c5)C(=O)N(C5CCC(=O)NC5=O)C6=O)CC4)cn3)CC2)cc1C(F)(F)F (stereo not shown) [Example 113, 1-(4-cyano-3-(trifluoromethyl)phenyl)-N-(5-(4-(5-((2-(2,6-dioxopiperidin-3-yl)-1,3-dioxoisoindolin-5-yl)oxy)pentyl)piperazin-1-yl)pyridin-2-yl)piperidine-4-carboxamide] | 55 | 92 | 87 |  |

Reference: patent US12122763B2, “Substituted piperidines for androgen receptor degradation” (UBIX THERAPEUTICS, INC., priority 2020, dated 2024)
